Reference: EP0343268A1, “Pharmaceutical composition and process for preparing the same” (BIOGAL GYOGYSZERGYAR, priority 1988, dated 1989)

Experiments:
[1] = cited from earlier work
[2] = tested on: several gram-positive and gram-negative bacteria such as Pseudomonas aeruginosa; conditions: in vitro conditions; cited from earlier work
[3] = Single-ingredient treatment of patients (steroid alone; sulfhydryl compound solution alone); type: in vivo; conditions: aqueous solutions (pH 7.0±0.2) of 3 to 19%, preferably 5 to 15%
Source text: (§1) Several compositions according to the invention were also studied with omitting one active ingredient of the composition in order to support the progressive character of the multi-active-component type composition according to the invention. These experiments led to the following results.
An objective improvement was observed only in those cases involving large eardrum defects, strong hyperaemia and significant mucous membrane hypertrophy of the tympanic cavity as well as in the cases of external eczematous otitis (otitis externa ekzematosa).
The dilution of the discharge was not observed during the use,however, the amount of the discharge was somewhat reduced in spite of the decrease of its viscosity. The discharge, which was coherent and mucous in character, rather took the form of a precipitate under effect of the treatment by an acetylcysteine solution.

[4] = cited from earlier work; remark: listed apart in the source
[5] = cited from earlier work; remark: listed apart in the source
[6] = tested on: chronic mesotympanic otitis; assay: Single-ingredient treatment of patients with chronic mesotympanic otitis; type: in vivo; conditions: 1% solution
Source text: as §1

[7] = in the presence of sulfhydryl-containing compounds, particularly acetylcysteine; cited from earlier work
external otitis = assay: Single-ingredient treatment of patients with external otitis; type: in vivo; conditions: 1% solution
Source text: as §1

[8] = In vitro mucolytic effect on ear discharges
[9] = tested on: pathogenic microorganisms occurring in the discharges of patients suffering from chronic otitis (otitis media chronica); assay: Treatment of ear discharges by antibacterial agents (sensitivity of the pathogens); type: cell-based
Experimental: In the Department for Qtorhinolaryngology of the Medical University of Debrecen, adult and child patients were examined to identify the types of pathogenic microorganisms occurring in the discharges of patients suffering from chronic otitis (otitis media chronica); the discharges of 510 patients were analyzed for the bacterial infection.

[10] = number of cases, total number of the examinations 510

Molecule: CC(=O)N[C@@H](CS)C(=O)O [acetylcysteine, N-acetyl-L-cysteine]
- LD₅₀ in mice [1]: 3000 mg/kg of body-weight
- effect with several antibiotics [2]: synergistic effect
- inflammatory symptomes [3]: moderated
- viscosity of the discharge [3]: advantageously influenced
- LD₅₀ in rats [4]: 6000 mg/kg of body-weight
- LD₅₀ in dogs [5]: 1000 mg/kg of body-weight

Molecule: NC[C@H]1O[C@H](O[C@H]2[C@H](O)[C@@H](O[C@H]3O[C@H](CO)[C@@H](O)[C@H](N)[C@H]3O)[C@H](N)C[C@@H]2N)[C@H](N)C[C@@H]1O [Tobramycin]
- substantial improvement of the pathological processes [6]: about 60 % of patients
- absorption from the stomach [7]: not disadvantageously influenced
- substantial improvement of the pathological processes (external otitis): ≤ 40%

Molecule: O[C@H](CS)[C@@H](O)CS [dithioerythritol]
- mucolytic effect [8]: a mucolytic effect can also be shown

Molecule: CC[C@H]1OC(=O)[C@H](C)[C@@H](O[C@H]2C[C@@](C)(OC)[C@@H](O)[C@H](C)O2)[C@H](C)[C@@H](O[C@@H]2O[C@H](C)C[C@H](N(C)C)[C@H]2O)[C@](C)(O)C[C@@H](C)C(=O)[C@H](C)[C@@H](O)[C@]1(C)O [Erythromycin]
- absorption from the stomach [7]: not disadvantageously influenced

Molecule: CC(C)(CO)[C@@H](O)C(=O)NCCC(=O)NCCS [pantetheine]
- mucolytic effect [8]: a mucolytic effect can also be shown

Molecule: Neomycin
- absorption from the stomach [7]: not disadvantageously influenced

Molecule: N[C@@H](CCC(=O)N[C@@H](CS)C(=O)NCC(=O)O)C(=O)O [glutathione]
- mucolytic effect [8]: a mucolytic effect can also be shown

Molecule: C[C@H]1c2cccc(O)c2C(O)=C2C(=O)[C@]3(O)C(O)=C(C(N)=O)C(=O)[C@@H](N(C)C)[C@@H]3[C@@H](O)[C@@H]21 [doxycyclin]
- absorption from the stomach [7]: not disadvantageously influenced

Molecule: Penicillin
- A = therapeutically active (sensitive) [9, 10]: 67
- M = moderately active [9, 10]: 22
- R = inactive (resistant) [9, 10]: 218
- Act. = activity % ([9]; share of examined cases moderately active or active): 29.4%

Molecule: CC1(C)S[C@@H]2[C@H](NC(=O)[C@H](N)c3ccc(O)cc3)C(=O)N2[C@H]1C(=O)O [amoxicillin]
- absorption from the stomach [7]: not disadvantageously influenced

Molecule: N[C@@H](CSCC(=O)O)C(=O)O [carbocysteine]
- mucolytic effect [8]: a mucolytic effect can also be shown

Molecule: O=C(O)C(S)C(S)C(=O)O (stereo not shown) [dimercaptosuccinate]
- mucolytic effect [8]: a mucolytic effect can also be shown
